Measurements as given in PMC8893300, “A Dynamic Mass Redistribution Assay for the Human Sweet Taste Receptor Uncovers G-Protein Dependent Biased Ligands” (Frontiers in Pharmacology, 2022).
Read-outs that look alike come from different tables or passages of the source.

Columns and labels:
Format in all cases: cell-based
[1] = target: T1, human sweet taste receptor (hT1R2/hT1R3) (Homo sapiens, UniProt Q7RTX0+Q8TE23); experiment: DMR assay (Epic reader) on R2/R3 U2OS cells, endogenous G proteins; conditions: for EC50: peak DMR response
T1 construct: expressed in transfected cells
T1 sequence (Q8TE23 20-839): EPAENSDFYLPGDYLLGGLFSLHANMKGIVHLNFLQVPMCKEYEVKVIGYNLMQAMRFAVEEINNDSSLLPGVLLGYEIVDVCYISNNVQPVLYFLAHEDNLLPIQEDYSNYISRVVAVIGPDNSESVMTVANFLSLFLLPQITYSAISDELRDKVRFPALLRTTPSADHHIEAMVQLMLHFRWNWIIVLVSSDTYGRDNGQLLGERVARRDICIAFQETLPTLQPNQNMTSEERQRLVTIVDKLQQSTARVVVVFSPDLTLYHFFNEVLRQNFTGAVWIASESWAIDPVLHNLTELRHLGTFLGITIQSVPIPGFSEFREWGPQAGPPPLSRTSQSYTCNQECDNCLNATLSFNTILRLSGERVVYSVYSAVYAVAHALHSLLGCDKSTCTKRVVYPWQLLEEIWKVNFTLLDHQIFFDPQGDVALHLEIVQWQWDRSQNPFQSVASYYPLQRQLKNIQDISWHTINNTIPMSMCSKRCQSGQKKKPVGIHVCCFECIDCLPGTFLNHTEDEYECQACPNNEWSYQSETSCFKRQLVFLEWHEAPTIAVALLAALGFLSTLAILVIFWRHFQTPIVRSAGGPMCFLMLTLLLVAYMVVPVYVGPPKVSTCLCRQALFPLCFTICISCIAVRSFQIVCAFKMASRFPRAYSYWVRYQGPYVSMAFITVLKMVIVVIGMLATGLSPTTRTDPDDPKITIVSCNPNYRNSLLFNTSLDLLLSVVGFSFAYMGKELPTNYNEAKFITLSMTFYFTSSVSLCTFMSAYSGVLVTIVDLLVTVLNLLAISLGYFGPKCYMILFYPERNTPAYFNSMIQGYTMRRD
T1 sequence (Q7RTX0 21-852): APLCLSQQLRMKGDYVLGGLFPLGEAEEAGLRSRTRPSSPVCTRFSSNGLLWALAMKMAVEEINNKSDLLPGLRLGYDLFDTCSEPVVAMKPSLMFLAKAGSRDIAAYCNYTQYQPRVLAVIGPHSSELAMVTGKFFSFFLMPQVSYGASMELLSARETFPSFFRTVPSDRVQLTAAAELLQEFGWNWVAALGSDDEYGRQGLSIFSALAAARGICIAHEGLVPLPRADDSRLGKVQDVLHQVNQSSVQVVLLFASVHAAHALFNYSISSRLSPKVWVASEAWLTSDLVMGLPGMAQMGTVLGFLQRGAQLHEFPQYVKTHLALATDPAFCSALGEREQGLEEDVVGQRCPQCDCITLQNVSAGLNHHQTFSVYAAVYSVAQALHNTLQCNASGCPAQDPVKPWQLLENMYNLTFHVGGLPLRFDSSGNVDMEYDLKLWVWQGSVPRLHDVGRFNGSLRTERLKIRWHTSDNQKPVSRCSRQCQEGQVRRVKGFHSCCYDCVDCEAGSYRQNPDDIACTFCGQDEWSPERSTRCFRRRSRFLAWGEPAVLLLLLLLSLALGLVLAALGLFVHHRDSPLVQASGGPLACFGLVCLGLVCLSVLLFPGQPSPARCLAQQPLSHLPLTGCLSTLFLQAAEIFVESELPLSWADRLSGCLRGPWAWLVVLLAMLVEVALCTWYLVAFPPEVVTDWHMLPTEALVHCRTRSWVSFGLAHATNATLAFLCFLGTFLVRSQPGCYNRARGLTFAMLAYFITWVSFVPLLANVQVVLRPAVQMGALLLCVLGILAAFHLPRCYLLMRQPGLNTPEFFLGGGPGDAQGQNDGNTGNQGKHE
Method: (§1) The plates were incubated in the tissue culture hood for 20 min to allow cells to settle evenly at the bottom of the microplate and further cultured at 37°C in an atmosphere of 5% CO2 for 18–24 h. The next day, the cells were subjected to functional analysis using DMR. […] When indicated, data for agonist dose-responses were normalized to data obtained with a maximum concentration of sucralose (1 mM) and then fitted and plotted using GraphPad Prism (San Diego, CA) and non-linear regression analysis.
(§2) This value, that we termed pEC50Ratio (sucralose) or pEC50R (sucralose), was calculated with EC50 values obtained in the two assay systems. This transformation also allowed determination of an average and a standard error for the pEC50R (sucralose). The two sets of data (DMR and FLIPR data) were then analyzed with an un-paired t-test (α = 0.05). To calculate relative efficacy bias between the two assays, we captured the top asymptote value from each activity-normalized dose-response curve, as provided by the curve fit, calculated an average and a standard deviation (sd) for each agonist and then analyzed the data pairs with an un-paired t-test (α = 0.05). […] The following steps were followed: 1) Using the PRISM software, we re-analyzed each ligand’s dose-response data obtained in each assay with non-linear regression and the users-defined equation “New Operational Model with TauKa ratios” and retrieved logR values from the fits. 2) Subtracted each ligand’s logR value with that of our standard, the sucralose logR value, obtained from the same data set (each ligand dose-response assay data used in this analysis was accompanied with a sucralose dose-response ran on the same day), producing the ΔlogR value for leach ligand in each assay. 3) Calculated the mean and SEM from ΔlogR replicates (from three to nine independent dose-response analysis, in the two different assays). 4) Calculated ΔΔlogR values by subtracting the averaged ligands’ ΔlogR FLIPR values with the averaged ligands’ ΔlogR DMR values.

[2] = target: T2, human sweet taste receptor (hT1R2/hT1R3) coupled to Gα15 (Homo sapiens, UniProt Q7RTX0+Q8TE23); experiment: FLIPR calcium mobilization assay, R2/R3 U2OS cells transduced with Gα15 baculovirus; conditions: for EC50: R2/R3 U2OS cells expressing Gα15
T2 construct: expressed in transfected cells
T2 sequence (Q8TE23 20-839): T1 sequence (Q8TE23 20-839)
T2 sequence (Q7RTX0 21-852): T1 sequence (Q7RTX0 21-852)
Method: The Gα15 coding sequence was inserted in the HindIII-NotI sites and recombinant virus was generated using the Bac-to-Bac system (Life Technologies). Virus was further amplified by propagation in Sf9 cells grown in suspension using Sf900-II media. Virus titers were determined by plaque assay on Sf9 cells.
Cells were gently mixed with the virus at a multiplicity of infection (MOI) of 5. Using a multidrop, 70 μl per well of the cell and virus mixture was dispensed in a 384-well clear bottom plate (Fisher). After 24 h of incubation in a humidified 37°C tissue culture incubator, trichostatin A was added to a final concentration of 0.3 μM and the cells were incubated for another 18–24 h at 34°C. On the day of the experiment, cells were loaded with 4 μM of the calcium indicator Fluo-4 AM (Invitrogen) in D-PBS for 1 h at room temperature. After washing the cells with D-PBS using a cell washer (BioTek) and a 30-minute rest time, the cell plate and the compound plate were transferred into the FLIPR-Tetra (Molecular Devices). […] Loading and the FLIPR assay were run as described above. When indicated, data for agonist dose-responses were normalized to data obtained with a maximum concentration of sucralose (1 mM) and then fitted and plotted using GraphPad Prism (San Diego, CA) and non-linear regression analysis.
as §2

parental U2OS cells = experiment: DMR assay on parental U2OS cells (receptor-independent responses)
Method: as §1, with “DMR. The lidded Epic® 384 microplate and polypropylene compound plate (Corning) were loaded into the carousel of the Epic® reader, the target plate was washed with DMSO matched D-PBS using the Corning Epic® Liquid Handling Accessory (LHA) and equilibrated in 25 μl of DMSO matched D-PBS for 90 min.” for “DMR.”

Row | time of peak DMR response post-stimulation ([1]; R2/R3 U2OS cells) [min] | EC50 ([1]; R2/R3 U2OS cells, read-out: Activity in DMR assay EC50) [µM] | EC50 ([1]; R2/R3 U2OS cells, read-out: Activity in DMR assay pEC50 (converted)) [µM] | dose-response curve's top asymptote in the DMR assay ([1]; relative to response at 1 mM sucralose) | Activity in DMR assay Emax ([1]; top asymptote of dose-response normalized to 1 mM sucralose) | dose-response curve's top asymptote in the FLIPR assay ([2]; Gα15, relative to response at 1 mM sucralose) [%] | Activity in FLIPR assay Emax ([2]; Gα15, top asymptote of dose-response normalized to 1 mM sucralose) | EC50 ([2]; read-out: Activity in FLIPR assay EC50) [µM] | EC50 ([2]; read-out: Activity in FLIPR assay pEC50 (converted)) [µM] | response in the FLIPR assay, in words ([2]; R2/R3 U2OS cells transduced with Gα15) | SMILES | non-specific DMR effect on parental U2OS cells (parental U2OS cells; highest concentration of sucralose (≥2 mM)) | DMR response on parental U2OS cells, in words (parental U2OS cells)
1 | ~4 | 163 | 150 | around 122% | 122 | 104 | 104 | 72 | 69.3 | – | OC[C@H]1O[C@H](O[C@]2(CCl)O[C@H](CCl)[C@@H](O)[C@@H]2O)[C@H](O)[C@@H](O)[C@H]1Cl [Sucralose] | 20–40 pm | –
2 | – | – | – | – | – | – | – | – | – | – | COc1ccc(OC(C)C(=O)O)cc1 (stereo not shown) [lactisole, 2-(4-methoxyphenoxy)-propionic acid] | – | positive DMR response
3 | – | – | – | – | – | – | – | – | – | readily detected | OC[C@H]1O[C@@](CO)(O[C@H]2O[C@H](CO)[C@@H](O)[C@H](O)[C@H]2O)[C@@H](O)[C@@H]1O [sucrose] | – | produced significant DMR responses
